Laboratory results: ChEMBL document CHEMBL1201861, “Genomics of Drug Sensitity in Cancer screening data, Wellcome Trust Sanger Institute”

Key:
Test in all cases: cells
BB49-HNC = assay type: functional, cell-based, Homo sapiens; settings: Homo sapiens, BB49-HNC;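 further: cell viability assay read-out, reported as inhibition of BB49-HNC cell growth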
Description: SANGER: Inhibition of human BB49-HNC cell growth in a cell viability assay.

MHH-PREB-1 = assay type: functional, cell-based, Homo sapiens; settings: Homo sapiens, MHH-PREB-1;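 further: cell viability assay measuring inhibition of proliferation of human MHH-PREB-1 cells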
Description: SANGER: Inhibition of human MHH-PREB-1 cell growth in a cell viability assay.

ACN = assay type: functional, cell-based, Homo sapiens; settings: Homo sapiens, ACN;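 further: growth inhibition of the human ACN cell line, read out via cell viability testing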
Description: SANGER: Inhibition of human ACN cell growth in a cell viability assay.

KNS-81-FD = assay type: functional, cell-based, Homo sapiens; settings: Homo sapiens, KNS-81-FD;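 further: growth inhibition of KNS-81-FD cells, read out with a cell viability assay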
Description: SANGER: Inhibition of human KNS-81-FD cell growth in a cell viability assay.

TE-5 = assay type: functional, cell-based, Homo sapiens; settings: Homo sapiens, TE-5;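 further: inhibition of cell growth, read out by a cell viability assay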
Description: SANGER: Inhibition of human TE-5 cell growth in a cell viability assay.

HCE-T = assay type: functional, cell-based, Homo sapiens; settings: Homo sapiens, HCE-T;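 further: cell viability assay read-out, reporting inhibition of HCE-T cell growth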
Description: SANGER: Inhibition of human HCE-T cell growth in a cell viability assay.

A101D = assay type: functional, cell-based, Homo sapiens; settings: Homo sapiens, A101D;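 further: growth inhibition of the cell line, measured with a viability assay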
Description: SANGER: Inhibition of human A101D cell growth in a cell viability assay.

MS-1 = assay type: functional, cell-based, Homo sapiens; settings: Homo sapiens, MS-1;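 further: growth inhibition of MS-1 cells, read out by cell viability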
Description: SANGER: Inhibition of human MS-1 cell growth in a cell viability assay.

TGBC1TKB = assay type: functional, cell-based, Homo sapiens; settings: Homo sapiens, TGBC1TKB;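 further: growth inhibition of TGBC1TKB cells, read out by a cell viability assay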
Description: SANGER: Inhibition of human TGBC1TKB cell growth in a cell viability assay.

KARPAS-45 = assay type: functional, cell-based, Homo sapiens; settings: Homo sapiens, KARPAS-45;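 further: inhibition of cell line growth, read out through a viability assay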
Description: SANGER: Inhibition of human KARPAS-45 cell growth in a cell viability assay.

LS-1034 = assay type: functional, cell-based, Homo sapiens; settings: Homo sapiens, LS-1034
Description: SANGER: Inhibition of human LS-1034 cell growth in a cell viability assay.

P30-OHK = assay type: functional, cell-based, Homo sapiens; settings: Homo sapiens, P30-OHK;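 further: growth inhibition of the P30-OHK cell line, read out with a cell viability assay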
Description: SANGER: Inhibition of human P30-OHK cell growth in a cell viability assay.

SJRH30 = assay type: functional, cell-based; settings: Homo sapiens;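 further: growth inhibition of human SJRH30 cells, read out with a cell viability assay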
Description: SANGER: Inhibition of human SJRH30 cell growth in a cell viability assay.

NCI-H526 = assay type: functional, cell-based, Homo sapiens; settings: Homo sapiens, NCI-H526;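 further: growth inhibition of the human NCI-H526 cell line, measured by a cell viability assay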
Description: SANGER: Inhibition of human NCI-H526 cell growth in a cell viability assay.

MFM-223 = assay type: functional, cell-based, Homo sapiens; settings: Homo sapiens, MFM-223
Description: SANGER: Inhibition of human MFM-223 cell growth in a cell viability assay.

D-502MG = assay type: functional, cell-based, Homo sapiens; settings: Homo sapiens, D-502MG
Description: SANGER: Inhibition of human D-502MG cell growth in a cell viability assay.

KM12 = assay type: functional, cell-based, Homo sapiens; settings: Homo sapiens, KM12;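 further: KM12 cell growth inhibition, read out with a cell viability assay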
Description: SANGER: Inhibition of human KM12 cell growth in a cell viability assay.

EKVX = assay type: functional, cell-based, Homo sapiens; settings: Homo sapiens, EKVX;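 further: growth inhibition of human EKVX cells, read out with a cell viability assay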
Description: SANGER: Inhibition of human EKVX cell growth in a cell viability assay.

LS-411N = assay type: functional, cell-based, Homo sapiens; settings: Homo sapiens, LS-411N
Becker = assay type: functional, cell-based, Homo sapiens; settings: Homo sapiens, Becker;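 further: growth inhibition of Becker cells, read out with a cell viability assay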
Description: SANGER: Inhibition of human Becker cell growth in a cell viability assay.

IA-LM = assay type: functional, cell-based; settings: Homo sapiens;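 further: cell viability assay measuring growth inhibition of human IA-LM cells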
Description: SANGER: Inhibition of human IA-LM cell growth in a cell viability assay.

Calu-6 = assay type: functional, cell-based, Homo sapiens; settings: Homo sapiens, Calu-6;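 further: growth of human Calu-6 cells, read out by a cell viability assay, IC50 marking inhibition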
Description: SANGER: Inhibition of human Calu-6 cell growth in a cell viability assay.

UACC-62 = assay type: functional, cell-based; settings: Homo sapiens;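 further: growth inhibition of human UACC-62 cells, read out by a cell viability assay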
Description: SANGER: Inhibition of human UACC-62 cell growth in a cell viability assay.

ETK-1 = assay type: functional, cell-based, Homo sapiens; settings: Homo sapiens, ETK-1;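 further: growth inhibition of human ETK-1 cells, read out with a cell viability assay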
Description: SANGER: Inhibition of human ETK-1 cell growth in a cell viability assay.

EW-18 = assay type: functional, cell-based, Homo sapiens; settings: Homo sapiens, EW-18; read-out: IC50;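 further: growth inhibition of EW-18 cells, read out by a cell viability assay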
Description: SANGER: Inhibition of human EW-18 cell growth in a cell viability assay.

AM-38 = assay type: functional, cell-based, Homo sapiens; settings: Homo sapiens, AM-38;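 further: growth inhibition of AM-38 cells of human origin, read out by a cell viability assay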
Description: SANGER: Inhibition of human AM-38 cell growth in a cell viability assay.

NCI-H446 = assay type: functional, cell-based, Homo sapiens; settings: Homo sapiens, NCI-H446;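 further: growth inhibition of NCI-H446 cells determined by a cell viability assay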
Description: SANGER: Inhibition of human NCI-H446 cell growth in a cell viability assay.

RXF 393 = assay type: functional, cell-based, Homo sapiens; settings: Homo sapiens, RXF 393;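 further: growth inhibition of human RXF 393 cells, read out with a cell viability assay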
Description: SANGER: Inhibition of human RXF393 cell growth in a cell viability assay.

RERF-LC-MS = assay type: functional, cell-based; settings: Homo sapiens;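 further: growth inhibition of human RERF-LC-MS cells, read out by a cell viability assay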
Description: SANGER: Inhibition of human RERF-LC-MS cell growth in a cell viability assay.

MLMA = assay type: functional, cell-based, Homo sapiens; settings: Homo sapiens, MLMA;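 further: growth inhibition of MLMA cells (human), determined through a cell viability readout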
Description: SANGER: Inhibition of human MLMA cell growth in a cell viability assay.

GR-ST = assay type: functional, cell-based, Homo sapiens; settings: Homo sapiens, GR-ST
Description: SANGER: Inhibition of human GR-ST cell growth in a cell viability assay.

EW-11 = assay type: functional, cell-based, Homo sapiens; settings: Homo sapiens, EW-11;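 further: growth inhibition of human EW-11 cells, measured with a cell viability assay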
Description: SANGER: Inhibition of human EW-11 cell growth in a cell viability assay.

KY821 = assay type: functional, cell-based, Homo sapiens; settings: Homo sapiens, KY821;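 further: growth inhibition of human KY821 cells, read out by a cell viability assay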
Description: SANGER: Inhibition of human KY821 cell growth in a cell viability assay.

SK-N-DZ = assay type: functional, cell-based, Homo sapiens; settings: Homo sapiens, SK-N-DZ; read-out: IC50;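 further: growth inhibition of the cancer cell line, read out through a viability assay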
Description: SANGER: Inhibition of human SK-N-DZ cell growth in a cell viability assay.

MPP-89 = assay type: functional, cell-based, Homo sapiens; settings: Homo sapiens, MPP-89;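 further: growth inhibition of human MPP-89 cells, read out with a cell viability assay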
Description: SANGER: Inhibition of human MPP-89 cell growth in a cell viability assay.

NCI-H1304 = assay type: functional, cell-based, Homo sapiens; settings: Homo sapiens, NCI-H1304;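 further: growth inhibition of the cancer cell line, measured in a cell viability assay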
Description: SANGER: Inhibition of human NCI-H1304 cell growth in a cell viability assay.

COLO-668 = assay type: functional, cell-based, Homo sapiens; settings: Homo sapiens, COLO-668
Description: SANGER: Inhibition of human COLO-668 cell growth in a cell viability assay.

D-247MG = assay type: functional, cell-based; settings: Homo sapiens
Description: SANGER: Inhibition of human D-247MG cell growth in a cell viability assay.

SNB-75 = assay type: functional, cell-based, Homo sapiens; settings: Homo sapiens, SNB-75;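 further: cell viability assay measuring growth inhibition of human SNB-75 cells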
Description: SANGER: Inhibition of human SNB75 cell growth in a cell viability assay.

A4-Fuk = assay type: functional, cell-based, Homo sapiens; settings: Homo sapiens, A4-Fuk;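 further: growth inhibition of A4-Fuk cells, read out by a cell viability assay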
Description: SANGER: Inhibition of human A4-Fuk cell growth in a cell viability assay.

CTV-1 = assay type: functional, cell-based, Homo sapiens; settings: Homo sapiens, CTV-1;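 further: growth inhibition of the cell line, read out with a cell viability assay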
Description: SANGER: Inhibition of human CTV-1 cell growth in a cell viability assay.

COR-L88 = assay type: functional, cell-based, Homo sapiens; settings: Homo sapiens, COR-L88;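 further: growth inhibition of COR-L88 cells, read out with a cell viability assay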
Description: SANGER: Inhibition of human COR-L88 cell growth in a cell viability assay.

SF-268 = assay type: functional, cell-based, Homo sapiens; settings: Homo sapiens, SF-268;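 further: growth inhibition of SF-268 cells determined with a cell viability assay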
Description: SANGER: Inhibition of human SF268 cell growth in a cell viability assay.

LB1047-RCC = assay type: functional, cell-based, Homo sapiens; settings: Homo sapiens, LB1047-RCC;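 further: inhibition of cell growth, determined with a cell viability assay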
Description: SANGER: Inhibition of human LB1047-RCC cell growth in a cell viability assay.

LB831-BLC = assay type: functional, cell-based, Homo sapiens; settings: Homo sapiens, LB831-BLC;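 further: growth inhibition of LB831-BLC cells, read out with a cell viability assay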
Description: SANGER: Inhibition of human LB831-BLC cell growth in a cell viability assay.

COLO-824 = assay type: functional, cell-based, Homo sapiens; settings: Homo sapiens, COLO-824
Description: SANGER: Inhibition of human COLO-824 cell growth in a cell viability assay.

D283 Med = assay type: functional, cell-based, Homo sapiens; settings: Homo sapiens, D283 Med
Description: SANGER: Inhibition of human D-283MED cell growth in a cell viability assay.

VA-ES-BJ = assay type: functional, cell-based, Homo sapiens; settings: Homo sapiens, VA-ES-BJ;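 further: growth inhibition of the VA-ES-BJ cell line, read out by a cell viability assay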
Description: SANGER: Inhibition of human VA-ES-BJ cell growth in a cell viability assay.

NCI-H1770 = assay type: functional, cell-based, Homo sapiens; settings: Homo sapiens, NCI-H1770;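 further: growth inhibition of NCI-H1770 cells determined with a viability readout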
Description: SANGER: Inhibition of human NCI-H1770 cell growth in a cell viability assay.

TE-6 = assay type: functional, cell-based, Homo sapiens; settings: Homo sapiens, TE-6;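 further: growth inhibition of TE-6 cells, read out with a cell viability assay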
Description: SANGER: Inhibition of human TE-6 cell growth in a cell viability assay.

O=S(=O)(O)c1ccc2cc(/N=N/c3cc(S(=O)(=O)O)c4cccnc4c3O)ccc2c1
IC50 (BB49-HNC): > 16000 nM | IC50 (MHH-PREB-1): > 16000 nM | IC50 (ACN): > 16000 nM | IC50 (KNS-81-FD): > 16000 nM | IC50 (TE-5): > 16000 nM | IC50 (HCE-T): > 16000 nM | IC50 (A101D): > 16000 nM | IC50 (MS-1): > 16000 nM | IC50 (TGBC1TKB): > 16000 nM | IC50 (KARPAS-45): > 16000 nM | IC50 (LS-1034): > 16000 nM | IC50 (P30-OHK): > 16000 nM | IC50 (SJRH30): > 16000 nM | IC50 (NCI-H526): > 16000 nM | IC50 (MFM-223): > 16000 nM | IC50 (D-502MG): > 16000 nM | IC50 (KM12): > 16000 nM | IC50 (EKVX): > 16000 nM | IC50 (LS-411N): > 16000 nM | IC50 (Becker): > 16000 nM | IC50 (IA-LM): > 16000 nM | IC50 (Calu-6): > 16000 nM | IC50 (UACC-62): > 16000 nM | IC50 (ETK-1): > 16000 nM | IC50 (EW-18): > 16000 nM | IC50 (AM-38): > 16000 nM | IC50 (NCI-H446): > 16000 nM | IC50 (RXF 393): > 16000 nM | IC50 (RERF-LC-MS): > 16000 nM | IC50 (MLMA): > 16000 nM | IC50 (GR-ST): > 16000 nM | IC50 (EW-11): > 16000 nM | IC50 (KY821): > 16000 nM | IC50 (SK-N-DZ): > 16000 nM | IC50 (MPP-89): > 16000 nM | IC50 (NCI-H1304): > 16000 nM | IC50 (COLO-668): > 16000 nM | IC50 (D-247MG): > 16000 nM | IC50 (SNB-75): > 16000 nM | IC50 (A4-Fuk): > 16000 nM | IC50 (CTV-1): > 16000 nM | IC50 (COR-L88): > 16000 nM | IC50 (SF-268): > 16000 nM | IC50 (LB1047-RCC): > 16000 nM | IC50 (LB831-BLC): > 16000 nM | IC50 (COLO-824): > 16000 nM | IC50 (D283 Med): > 16000 nM | IC50 (VA-ES-BJ): > 16000 nM | IC50 (NCI-H1770): > 16000 nM | IC50 (TE-6): > 16000 nM

Cc1ccc(C(=O)Nc2ccc(CN3CCN(C)CC3)c(C(F)(F)F)c2)cc1C#Cc1cnc2cccnn12 [PONATINIB]
IC50 (BB49-HNC): > 512 nM | IC50 (MHH-PREB-1): > 512 nM | IC50 (ACN): 349 nM | IC50 (KNS-81-FD): > 512 nM | IC50 (TE-5): > 512 nM | IC50 (HCE-T): > 512 nM | IC50 (A101D): > 512 nM | IC50 (MS-1): > 512 nM | IC50 (TGBC1TKB): > 512 nM | IC50 (KARPAS-45): 489 nM | IC50 (LS-1034): > 512 nM | IC50 (P30-OHK): 157 nM | IC50 (SJRH30): > 512 nM | IC50 (NCI-H526): > 512 nM | IC50 (MFM-223): > 512 nM | IC50 (D-502MG): > 512 nM | IC50 (KM12): 97.4 nM | IC50 (EKVX): > 512 nM | IC50 (LS-411N): > 512 nM | IC50 (Becker): > 512 nM | IC50 (IA-LM): > 512 nM | IC50 (Calu-6): > 512 nM | IC50 (UACC-62): > 512 nM | IC50 (ETK-1): > 512 nM | IC50 (EW-18): > 512 nM | IC50 (AM-38): > 512 nM | IC50 (NCI-H446): > 512 nM | IC50 (RXF 393): > 512 nM | IC50 (RERF-LC-MS): > 512 nM | IC50 (MLMA): 90.6 nM | IC50 (GR-ST): > 512 nM | IC50 (EW-11): > 512 nM | IC50 (KY821): > 512 nM | IC50 (SK-N-DZ): > 512 nM | IC50 (MPP-89): 169 nM | IC50 (NCI-H1304): > 512 nM | IC50 (COLO-668): > 512 nM | IC50 (D-247MG): > 512 nM | IC50 (SNB-75): > 512 nM | IC50 (A4-Fuk): > 512 nM | IC50 (CTV-1): 5.21 nM | IC50 (COR-L88): > 512 nM | IC50 (SF-268): 449 nM | IC50 (LB1047-RCC): > 512 nM | IC50 (LB831-BLC): > 512 nM | IC50 (COLO-824): > 512 nM | IC50 (D283 Med): > 512 nM | IC50 (VA-ES-BJ): > 512 nM | IC50 (NCI-H1770): > 512 nM | IC50 (TE-6): > 512 nM
